Data as given in ChEMBL document CHEMBL3351284, “Internalization and stability of a thymidylate synthase Peptide inhibitor in ovarian cancer cells” (J Med Chem, 2014).
Active and inactive are the calls of the source. The rule behind the calls is not given here.

Test system: C13
Assay: Growth inhibition of cisplatin-resistant human C13 cells at 5 uM after 72 hrs by flow-cytometric analysis
Format: functional, cell-based

## O=c1[nH]cc(F)c(=O)[nH]1
  growth inhibition (GI): Active
